Laboratory results published in US20080161232A1, “C5a Receptor Antagonist” (JERINI AG, priority 2005, published 2008).
Non-standard residues stand in square brackets, D forms with d. Residues, ends and D or L forms follow the SMILES beside them. Bta = N[C@@H](Cc1csc2ccccc12)C(=O)O; d(hLeu) = CC(C)CC[C@@H](N)C(=O)O; Orn = NCCC[C@H](N)C(=O)O

Key:
[1] = test system: Wistar rats; assay: Model of C5a induced neutropenia; type: in vivo; settings: i.v. infusion 10 min before 2 μg/kg hr C5a i.v., FIG. 2
Text: Efficacy of compound 149 in a model of C5a induced neutropenia
C5a induced neutropenia is a model for shock induced diseases (e.g. septic shock), where the systemic role of C5a (neutropenia, blood pressure decrease) plays an important role. The reason for the decrease of the neutrophils in the circulation is their binding to the vessel walls due to the C5a stimulus. These processes of neutrophil recruitment are playing an important role in many other diseases like reperfusion injury. This model was also described by Short et al. (1999 British Journal of Pharmacology 125: 551-554).
Female Wistar rats were treated i.p. with ketamine (80 mg/kg) and xylazine (12 mg/kg). A catheter was introduced in the jugular vein and the animals were subjected to the following procedure:
1. Rats were treated with vehicle or compounds according to the invention like compound 149 via i.v. infusion. A blood sample was taken one minute before compound treatment. 2. 10 min after compound infusion rats were treated with 2 μg/kg hr C5a i.v. (2 μg/kg over 1 min). […]
White blood cell count was measured with a haematology-cell-counter. […]
The differential cell count was determined as the sum of neutrophils, eosinophils, basophils, lymphocytes and monocytes of 100 cells. Then the percentage of the neutrophils in relation to all white blood cells was calculated.

[2] = biological target: T1, human C5aR(CD88) (Homo sapiens, UniProt P21730); assay: Determination of EC50-values in an enzyme release assay (agonistic activity); type: cell-based; settings: cellular assay, up to a concentration of at least 1430 nM
T1 construct: expressed in transfected cells; host or cells: rat basophilic leukemia cells (RBL)
T1 sequence (P21730 1-350): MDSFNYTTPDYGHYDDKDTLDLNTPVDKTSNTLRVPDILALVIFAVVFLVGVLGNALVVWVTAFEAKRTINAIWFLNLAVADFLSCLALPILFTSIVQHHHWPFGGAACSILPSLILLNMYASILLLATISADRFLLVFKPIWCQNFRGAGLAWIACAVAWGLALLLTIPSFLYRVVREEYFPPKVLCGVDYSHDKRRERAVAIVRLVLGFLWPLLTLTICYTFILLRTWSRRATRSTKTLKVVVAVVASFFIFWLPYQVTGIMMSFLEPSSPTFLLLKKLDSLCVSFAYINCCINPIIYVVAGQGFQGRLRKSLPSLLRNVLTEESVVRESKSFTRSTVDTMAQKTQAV
Outline: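 RBL cells expressing human C5aR, 2×10^6 cells/ml in HAG-CM and primed with cytochalasin B, were exposed to compound alone, without C5a stimulation or preincubation. Released β-hexosaminidase was measured with p-nitrophenyl-N-acetyl-β-D-glucosaminide (60 min, 37°C, pH 4.5) at 405 nm; EC50 came from a four-parameter fit.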

[3] = test system: BALB/c mice; assay: Model of immune complex mediated peritonitis (reverse passive Arthus reaction); type: in vivo; settings: 1 mg/kg i.v. 15 min before Arthus reaction, lavage after 6 h, FIG. 1
Text: Efficacy of compound 149 in a model of immune complex mediated peritonitis
Immune complex mediated peritonitis resembles the pathological conditions of immune complex related diseases like vasculitis, nephritis, arthritis, and farmer's disease. The associated animal model was described by Heller et al. (1999 Journal of Immunology 163: 985-994) and takes advantage of the pro-inflammatory effects of immune complexes formed after i.v. administration of the antigen and i.p. administration of the antibody.
BALB/c mice (6-8 weeks old) were treated i.v. with compound 149 (1 mg/kg bodyweight in 200 μl vehicle) 15 min before the initiation of the reverse passive Arthus reaction. Arthus reaction was induced through the administration of OVA (20 mg/kg i.v. in 200 μl PBS) and polyclonal anti-OVA Ab (rabbit; 800 μg/Maus i.p). After 6 h a peritoenal lavage with 2 ml PBS 0.1% BSA was done. The collected PE-cells were stained with DIFF-Quick. At least 20 visual fields (100× magnification) were analyzed for the presence of neutrophils.

[4] = biological target: T1, human C5aR(CD88); assay: Determination of the IC50 value in an enzyme release assay (functional assay, antagonistic activity); type: cell-based

**Q.** What does the source list for `CC(=O)N[C@@H](Cc1ccccc1)C(=O)N[C@@H](CCCN)C(=O)N1CCC[C@H]1C(=O)N[C@H](CCC(C)C)C(=O)N[C@@H](Cc1csc2ccccc12)C(=O)N[C@@H](Cc1ccccc1)C(N)=O` [Compound 149, Ac-Phe-Orn-Pro-hle-Bta-Phe-NH2] (Ac-F[Orn]P[d(hLeu)][Bta]F-NH2)?
**A.** C5a-induced neutropenia (percentage of neutrophils over time) [1]: reduces the C5a-induced neutropenia remarkable; agonistic activity (in words) [2]: pure antagonists; influx of neutrophils / pro-inflammatory cells into the peritoneum [3]: reduction of the influx of pro-inflammatory cells into the peritoneum; IC50 ([4]; antagonistic activity, IC50 group in enzyme release assay, RBL cells expressing human C5aR(CD88), read-out: activity (group)): 10 to 20 nM; inhibitory activity (in words) ([4]; functional assay of example 11, noteworthy = IC50 less than 200 nM): noteworthy inhibitory activity
